Experimental data: patent US12287326B2, “Fluorescent turn-on chemosensors for detection of aluminum ion and azide” (Morgan State University, priority 2019, dated 2025)

Test: Fluorescence titration of sensors with Al^3+
Details: λex=510 nm, emission 585 nm
Procedure: All reagents and solvents were purchased as analytical-grade and used without further purification unless otherwise stated. Stock solutions of metal ions were prepared from their nitrate and chloride salts and anion species from their tetrabutylammonium salts. Distilled deionized water was used throughout the experiments. ^1H-NMR and 13C-NMR spectra were recorded using an Avance 400 MHz spectrometer (BRUKER® Billerica, Karlsruhe, Germany) with tetramethylsilane (TMS) as internal standard and deuterated chloroform (CDCl3) as solvent. NMR spectra were analyzed using MestReNova software (version 10, Mestrela Research, Feliciano Barrera-Bajo, Spain). The IR spectrum was obtained using FT-IR spectrometer (Shimadzu, IRAffinity-1S, Columbia, MD, USA). […] All UV-vis spectroscopy experiments were recorded using a Cary UV/vis spectrophotometer 5000 (VARIAN®, Walnut Creek, CA, USA). Fluorescence emission spectra experiments were measured using a Cary 60 series spectrometer (AGILENT® Walnut Creek, CA, USA), with excitation and emission slit widths of 5 nm and excitation wavelength at 510 nm. […]
All spectroscopic measurements were carried out in aqueous CH3CN medium at room temperature. […] Each fluorescence titration was repeated at least thrice until consistent values were obtained. […] The association constant (K) was calculated from absorbance studies by the linear Benesi-Hildebrand equation. […]

Row | Structure (SMILES) | detection limit for Al^3+ ions
1 | CCN(CC)c1ccc2c(c1)Oc1cc(N(CC)CC)ccc1C21c2ccccc2C(=O)N1/N=C/c1c(OC)ccc2ccccc12 [L1] | 32 µM
2 | CCN(CC)c1ccc2c(c1)Oc1cc(N(CC)CC)ccc1C21c2ccccc2C(=O)N1/N=C/c1cc(Br)cc(OC)c1O [L2] | 47 µM
